# Test results: PMC4339887, “Selective Sirt2 inhibition by ligand-induced rearrangement of the active site” (Nature Communications, 2015)
# Target: T1, human Sirt4 (Homo sapiens, UniProt Q9Y6E7)
# T1 construct: Human Sirt4_25–314 (Uniprot: Q9Y6E7); made in house
# T1 sequence (Q9Y6E7 25-314): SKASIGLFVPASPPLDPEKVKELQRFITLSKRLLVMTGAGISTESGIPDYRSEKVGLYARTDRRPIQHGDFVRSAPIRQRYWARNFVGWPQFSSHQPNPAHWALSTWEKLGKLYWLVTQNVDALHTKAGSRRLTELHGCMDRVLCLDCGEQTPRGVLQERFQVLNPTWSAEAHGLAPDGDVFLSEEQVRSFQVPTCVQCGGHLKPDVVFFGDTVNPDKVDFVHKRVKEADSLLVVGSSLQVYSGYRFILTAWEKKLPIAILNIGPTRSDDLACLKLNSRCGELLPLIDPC
# Test: Sirt4-dependent deacetylation of acetylated Nnt397-peptide, LC-MS
# Assay type: biochemical
# Conditions: 200 μM, acetyl-lysine substrate
# Protocol: Initial screens were conducted with a high-throughput fluorescence-based assay using the substrate ZMAL (Z-Lys(Acetyl)-AMC) that was synthesized according to published procedures. For this human Sirt1_133–747, human Sirt2_25–389, human Sirt3_101–399 or Sirt3_118–395 were mixed with assay buffer (50 mM Tris/HCl, 137 mM NaCl, 2.7 mM KCl, 1 mM MgCl2, pH 8.0), β-NAD^+ (final assay concentration 500 μM), the substrate ZMAL (final assay concentration 10.5 μM from a 12.6 mM stock solution in DMSO) and the respective inhibitor in DMSO at various concentrations or DMSO as a control (final DMSO concentration 5–20% (v/v)). The mixture was incubated at 37 °C for 4 h, with agitation at 150 r.p.m. […] Then the fluorescence intensity was measured in a microplate reader (BMG Polarstar, λex 390 nm, λem 460 nm). The amount of inhibition was determined with respect to the mixture with only DMSO. IC50 values were determined with Graphpad Prism software using a non-linear regression to fit the dose–response curve. […] Peaks of acetylated and deacetylated substrate were quantified by absorption at 280 nm. […] The samples were then diluted to a peptide concentration of 5 μM with 0.1% (v/v) formic acid and analysed on an EASY-nLCII connected to a LTQ mass spectrometer (Thermo Fisher Scientific). […]
smiles,measurement,value
Cc1cc(C)nc(SCC(=O)Nc2ncc(Cc3cccc4ccccc34)s2)n1 [SirReal2],effect on activity of Sirt4,very little effect
